Patent publication US20260053932A1, “COMPOUNDS AND METHODS FOR THE TARGETED DEGRADATION OF ANDROGEN RECEPTOR AND ASSOCIATED METHODS OF USE” (Arvinas Operations, Inc., priority 2020, published 2026)

Test system: androgen receptor (AR) in LNCaP and/or VCaP cells
Assay: Androgen Receptor ELISA assay (AR degradation)
Format: cell-based
Conditions: LNCaP and/or VCaP cells; 5 hours incubation; media with R1881; read-out: DC50 Code* (degradation of AR ELISA)
In short: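 VCaP cells grown ≥3 days, then treated 5 h with compound in media containing 1 nM R1881 (10× stock). Cells lysed and AR quantified by sandwich ELISA (mouse AR detection Ab, HRP anti-mouse, TMB). DC50 and Dmax derived from AR degradation.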

SMILES | DC50 [nM]
CC(C)N(CC1CCN(c2cnc(C(=O)N[C@H]3CC[C@H](Oc4ccc(C#N)c(Cl)c4)CC3)cn2)CC1)[C@H]1C[C@H](Oc2ccc3c(c2F)C(=O)N(C2CCC(=O)NC2=O)C3=O)C1 (some centres unmarked) [Compound 52, N-((1r,4r)-4-(3-chloro-4-cyanophenoxy)cyclohexyl)-5-(4-((((1r,3r)-3-((2-(2,6-dioxopiperidin-3-yl)-4-fluoro-1,3-dioxoisoindolin-5-yl)oxy)cyclobutyl) (isopropyl)amino)methyl)piperidin-1-yl)pyrazine-2-carboxamide] | < 1
CC(C)N(CC1CN(c2ncc(C(=O)N[C@H]3CC[C@H](Oc4ccc(C#N)c(Cl)c4)CC3)cn2)C1)[C@H]1C[C@H](Oc2ccc3c(c2)C(=O)N(C2CCC(=O)NC2=O)C3=O)C1 (some centres unmarked) [Compound 66, N-((1r,4r)-4-(3-chloro-4-cyanophenoxy)cyclohexyl)-2-(3-((((1r,3r)-3-((2-(2,6-dioxopiperidin-3-yl)-1,3-dioxoisoindolin-5-yl)oxy)cyclobutyl) (isopropyl)amino)methyl)azetidin-1-yl)pyrimidine-5-carboxamide] | < 1
COc1cc(O[C@H]2C[C@H](N(CC3CCN(c4ncc(C(=O)N[C@H]5CC[C@@H](Oc6cc(C)c(C#N)c(C)c6)C5)cn4)CC3)C(C)C)C2)cc2c1C(=O)N(C1CCC(=O)NC1=O)C2=O (stereo partly drawn) [Compound 9, N-((1S,3R)-3-(4-cyano-3,5-dimethylphenoxy)cyclopentyl)-2-(4-((((1r,3S)-3-((2-(2,6-dioxopiperidin-3-yl)-7-methoxy-1,3-dioxoisoindolin-5-yl)oxy)cyclobutyl) (isopropyl)amino)methyl)piperidin-1-yl)pyrimidine-5-carboxamide] | > 100
N#Cc1ccc(O[C@H]2CC[C@H](NC(=O)c3cnc(N4CCC(CN(CC5COC5)[C@H]5C[C@H](Oc6ccc7c(c6)C(=O)N(C6CCC(=O)NC6=O)C7=O)C5)CC4)cn3)CC2)cc1Cl (some centres unmarked) [Compound 53, N-((1r,4r)-4-(3-chloro-4-cyanophenoxy)cyclohexyl)-5-(4-((((1r,3r)-3-((2-(2,6-dioxopiperidin-3-yl)-1,3-dioxoisoindolin-5-yl)oxy)cyclobutyl) (oxetan-3-ylmethyl)amino)methyl)piperidin-1-yl)pyrazine-2-carboxamide] | < 1
COc1cc(O[C@H]2C[C@H](N(CC3CCN(c4ncc(C(=O)N[C@@H]5CC[C@H](Oc6cc(C)c(C#N)c(C)c6)C5)cn4)CC3)C(C)C)C2)cc2c1C(=O)N(C1CCC(=O)NC1=O)C2=O (stereo partly drawn) [Compound 4, N-((1R,3S)-3-(4-cyano-3,5-dimethylphenoxy)cyclopentyl)-2-(4-((((1r,3R)-3-((2-(2,6-dioxopiperidin-3-yl)-7-methoxy-1,3-dioxoisoindolin-5-yl)oxy)cyclobutyl) (isopropyl)amino)methyl)piperidin-1-yl)pyrimidine-5-carboxamide] | > 100
CC(C)N(CC1CCN(c2cnc(C(=O)N[C@H]3CC[C@H](Oc4ccc(C#N)c(Cl)c4)CC3)cn2)CC1)[C@H]1C[C@H](Oc2ccc3c(c2)C2(CC2)N(C2CCC(=O)NC2=O)C3=O)C1 (some centres unmarked) [Compound 65, N-((1r,4r)-4-(3-chloro-4-cyanophenoxy)cyclohexyl)-5-(4-((((1r,3r)-3-((2′-(2,6-dioxopiperidin-3-yl)-3′-oxospiro[cyclopropane-1,1′-isoindolin]-6′-yl)oxy)cyclobutyl) (isopropyl)amino)methyl)piperidin-1-yl)pyrazine-2-carboxamide] | < 1

Same assay, conditions: degradation of AR ELISA in LNCaP and/or VCaP cells; Table 2C; read-out: DC50 Code*

SMILES | DC50 [nM]
Cc1cc(O[C@H]2C(C)(C)[C@H](NC(=O)c3ccc(N4CC(CN(C(C)C)[C@H]5C[C@H](Oc6ccc7c(c6)C(=O)N(C6CCC(=O)NC6=O)C7=O)C5)C4)cc3)C2(C)C)cc(C)c1C#N (some centres unmarked) [compound 187, N-((1r,3r)-3-(4-cyano-3,5-dimethylphenoxy)-2,2,4,4-tetramethylcyclobutyl)-4-(3-((((1r,3r)-3-((2-(2,6-dioxopiperidin-3-yl)-1,3-dioxoisoindolin-5-yl)oxy)cyclobutyl) (isopropyl)amino)methyl)azetidin-1-yl)benzamide] | < 1
COCCOCCOCCOCCN(CC1CCN(c2ncc(C(=O)N[C@H]3C(C)(C)[C@H](Oc4cc(C)c(C#N)c(C)c4)C3(C)C)cn2)CC1)[C@H]1C[C@H](Oc2ccc3c(c2)C(=O)N(C2CCC(=O)NC2=O)C3=O)C1 (some centres unmarked) [compound 145, N-((1r,3r)-3-(4-cyano-3,5-dimethylphenoxy)-2,2,4,4-tetramethylcyclobutyl)-2-(4-(2-((1r,3r)-3-((2-(2,6-dioxopiperidin-3-yl)-1,3-dioxoisoindolin-5-yl)oxy)cyclobutyl)-5,8,11,14-tetraoxa-2-azapentadecyl)piperidin-1-yl)pyrimidine-5-carboxamide] | < 1
COCCN(CC1CCN(c2ccc(C(=O)N[C@H]3C(C)(C)[C@H](Oc4ccc(C#N)c(Cl)c4)C3(C)C)nn2)CC1)[C@H]1C[C@H](Oc2ccc3c(c2)C(=O)N(C2CCC(=O)NC2=O)C3=O)C1 (some centres unmarked) [compound 127, N-((1r,3r)-3-(3-chloro-4-cyanophenoxy)-2,2,4,4-tetramethylcyclobutyl)-6-(4-((((1r,3r)-3-((2-(2,6-dioxopiperidin-3-yl)-1,3-dioxoisoindolin-5-yl)oxy)cyclobutyl)(2-methoxyethyl)amino)methyl)piperidin-1-yl)pyridazine-3-carboxamide] | < 1
COc1cc(O[C@H]2C(C)(C)[C@H](NC(=O)c3ccc(N4CC(CN(C(C)C)[C@H]5C[C@H](Oc6ccc7c(c6)C(=O)N(C6CCC(=O)NC6=O)C7=O)C5)C4)cc3)C2(C)C)ccc1C#N (mixture of isomers) [compound 176, rac-N-((1r,3r)-3-(4-cyano-3-methoxyphenoxy)-2,2,4,4-tetramethylcyclobutyl)-4-(3-((((1r,3r)-3-((2-(2,6-dioxopiperidin-3-yl)-1,3-dioxoisoindolin-5-yl)oxy)cyclobutyl) (isopropyl)amino)methyl)azetidin-1-yl)benzamide] | < 1
[2H]C([2H])([2H])Oc1cc(O[C@H]2C(C)(C)[C@H](NC(=O)c3cnc(N4CCC(CN(C(C)C)[C@H]5C[C@H](Oc6cc(OC([2H])([2H])[2H])c7c(c6)C(=O)N(C6CCC(=O)NC6=O)C7=O)C5)CC4)cn3)C2(C)C)ccc1C#N (mixture of isomers) [compound 202, rac-N-((1r,3r)-3-(4-cyano-3-(methoxy-d3)phenoxy)-2,2,4,4-tetramethylcyclobutyl)-5-(4-((((1r,3r)-3-((2-(2,6-dioxopiperidin-3-yl)-7-(methoxy-d3)-1,3-dioxoisoindolin-5-yl)oxy)cyclobutyl) (isopropyl)amino)methyl)piperidin-1-yl)pyrazine-2-carboxamide] | < 1
[2H]C([2H])([2H])Oc1cc(O[C@H]2C[C@H](N(CC3CCN(c4cnc(C(=O)N[C@H]5C(C)(C)[C@H](Oc6cc(C)c(C#N)c(C)c6)C5(C)C)cn4)CC3)C(C)C)C2)cc2c1C(=O)N(C1CCC(=O)NC1=O)C2=O (mixture of isomers) [compound 195, rac-N-((1r,3r)-3-(4-cyano-3,5-dimethylphenoxy)-2,2,4,4-tetramethylcyclobutyl)-5-(4-((((1r,3r)-3-((2-(2,6-dioxopiperidin-3-yl)-7-(methoxy-d3)-1,3-dioxoisoindolin-5-yl)oxy)cyclobutyl) (isopropyl)amino)methyl)piperidin-1-yl)pyrazine-2-carboxamide] | < 1
CC(C)N(CC1CC2(C1)CN(c1ncc(C(=O)N[C@H]3C(C)(C)[C@H](Oc4ccc(C#N)c(Cl)c4)C3(C)C)cn1)C2)[C@H]1C[C@H](Oc2ccc3c(c2)C(=O)N(C2CCC(=O)NC2=O)C3=O)C1 (some centres unmarked) [compound 87, N-((1r,3r)-3-(3-chloro-4-cyanophenoxy)-2,2,4,4-tetramethylcyclobutyl)-2-(6-((((1r,3r)-3-((2-(2,6-dioxopiperidin-3-yl)-1,3-dioxoisoindolin-5-yl)oxy)cyclobutyl) (isopropyl)amino)methyl)-2-azaspiro[3.3]heptan-2-yl)pyrimidine-5-carboxamide] | < 1
Cc1cc(O[C@H]2C(C)(C)[C@H](NC(=O)c3cnc(N4CC(CN5CCC(Oc6ccc7c(c6)C(=O)N(C6CCC(=O)NC6=O)C7=O)CC5)C4)cn3)C2(C)C)cc(C)c1C#N (some centres unmarked) [compound 117, N-((1r,3r)-3-(4-cyano-3,5-dimethylphenoxy)-2,2,4,4-tetramethylcyclobutyl)-5-(3-((4-((2-(2,6-dioxopiperidin-3-yl)-1,3-dioxoisoindolin-5-yl)oxy)piperidin-1-yl)methyl)azetidin-1-yl)pyrazine-2-carboxamide] | < 1
CC(C)N(CC1CCN(c2ncc(C(=O)N[C@H]3C(C)(C)[C@H](Oc4ccc(C#N)c(Cl)c4)C3(C)C)cn2)CC1)[C@H]1C[C@H](Oc2ccc3c(c2)CN(C2CCC(=O)NC2=O)C3=O)C1 (some centres unmarked) [compound 80, N-((1r,3r)-3-(3-chloro-4-cyanophenoxy)-2,2,4,4-tetramethylcyclobutyl)-2-(4-((((1r,3r)-3-((2-(2,6-dioxopiperidin-3-yl)-1-oxoisoindolin-5-yl)oxy)cyclobutyl) (isopropyl)amino)methyl)piperidin-1-yl)pyrimidine-5-carboxamide] | < 1
COCCN(CC1CCN(c2ccc(C(=O)N[C@H]3C(C)(C)[C@H](Oc4ccc(C#N)c(OC)c4)C3(C)C)cc2)CC1)[C@H]1C[C@H](Oc2cc(OC)c3c(c2)C(=O)N(C2CCC(=O)NC2=O)C3=O)C1 (some centres unmarked) [compound 94, N-((1r,3r)-3-(4-cyano-3-methoxyphenoxy)-2,2,4,4-tetramethylcyclobutyl)-4-(4-((((1r,3r)-3-((2-(2,6-dioxopiperidin-3-yl)-7-methoxy-1,3-dioxoisoindolin-5-yl)oxy)cyclobutyl)(2-methoxyethyl)amino)methyl)piperidin-1-yl)benzamide] | < 1

Same assay, conditions: degradation of AR ELISA in LNCaP and/or VCaP cells; read-out: DC50 Code*

SMILES | DC50 [nM]
CC1(C)[C@H](NC(=O)c2ccc(N3CCC(CO[C@H]4C[C@H](Oc5ccc6c(c5)C(=O)N(C5CCC(=O)NC5=O)C6=O)C4)CC3)cc2)C(C)(C)[C@H]1Oc1ccc(C#N)c(Cl)c1 (some centres unmarked) [compound 245, N-((1r,3r)-3-(3-chloro-4-cyanophenoxy)-2,2,4,4-tetramethylcyclobutyl)-4-(4-(((1r,3r)-3-((2-(2,6-dioxopiperidin-3-yl)-1,3-dioxoisoindolin-5-yl)oxy)cyclobutoxy)methyl)piperidin-1-yl)benzamide] | 1 to 10
